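Step 1: Grow cells in 96-well plates. Step 2: Expose to compound for 48 hours at 5 concentrations. Step 3: Interpolate endpoints linearly; if unreached, use highest concentration. GI50 = concentration required for 50% inhibition of growth.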 The source made the active and inactive calls. Cut-off read from the data, not from the text of the source: active = GI50 up to about 1.1 µM and inactive = higher.
How the values were obtained:
Assay in all cases: inhibition of tumour cell growth, NCI panel, 48 h
OVCAR-3 = test system: OVCAR-3
SNB-78 = test system: SNB-78
Hs-578T = test system: Hs-578T
KM-20L2 = test system: KM-20L2
DMS-273 = test system: DMS-273
UO-31 = test system: UO-31
SN12C = test system: SN12C
MDA-N = test system: MDA-N
RPMI-8226 = test system: RPMI-8226
M14 = test system: M14
MDA-MB-435 = test system: MDA-MB-435
SF-539 = test system: SF-539
KM12 = test system: KM12
OVCAR-5 = test system: OVCAR-5
M19-MEL = test system: M19-MEL
LOX IMVI = test system: LOX IMVI
HOP-62 = test system: HOP-62
SK-OV-3 = test system: SK-OV-3
SR = test system: SR
786-0 = test system: 786-0
DLD-1 = test system: DLD-1
CCRF-CEM = test system: CCRF-CEM
RXF 393 = test system: RXF 393
OVCAR-4 = test system: OVCAR-4
MDA-MB-231 = test system: MDA-MB-231
U-251 = test system: U-251
COLO 205 = test system: COLO 205
DU-145 = test system: DU-145
A549 = test system: A549
NCI-H23 = test system: NCI-H23
NCI-H522 = test system: NCI-H522
T47D = test system: T47D
LXFL 529 = test system: LXFL 529
PC-3 = test system: PC-3
ACHN = test system: ACHN
SK-MEL-2 = test system: SK-MEL-2
SF-295 = test system: SF-295
UACC-257 = test system: UACC-257
Malme-3M = test system: Malme-3M
SNB-19 = test system: SNB-19
OVCAR-8 = test system: OVCAR-8
TK-10 = test system: TK-10
A498 = test system: A498
NCI-H226 = test system: NCI-H226
MCF7 = test system: MCF7
HOP-92 = test system: HOP-92
BT-549 = test system: BT-549
HCT-116 = test system: HCT-116
XF498 = test system: XF498
HL-60 = test system: HL-60
SNB-75 = test system: SNB-75
K562 = test system: K562
CAKI-1 = test system: CAKI-1
IGROV-1 = test system: IGROV-1
SF-268 = test system: SF-268
UACC-62 = test system: UACC-62
SK-MEL-28 = test system: SK-MEL-28
SK-MEL-5 = test system: SK-MEL-5
HCT-15 = test system: HCT-15
EKVX = test system: EKVX
HOP-18 = test system: HOP-18
SW-620 = test system: SW-620
MOLT-4 = test system: MOLT-4
HT-29 = test system: HT-29
NCI-H460 = test system: NCI-H460

CC1(C)C(=O)/C=C\C(=O)C(C)(C)C(=O)/C=C\C(=O)C(C)(C)C(=O)/C=C\C(=O)C(C)(C)C(=O)/C=C\C1=O was tested, and the GI50 (OVCAR-3) was 23.8 µM (inactive), the GI50 (SNB-78) was 17.4 µM (inactive) and the GI50 (Hs-578T) was > 100 µM (inactive). The GI50 (KM-20L2) was 26.6 µM (inactive), the GI50 (DMS-273) was 16.8 µM (inactive) and the GI50 (UO-31) was 34.8 µM (inactive). For the same molecule, the GI50 (SN12C) was 24.3 µM (inactive), the GI50 (MDA-N) was 41.8 µM (inactive) and the GI50 (RPMI-8226) was 4.97 µM (inactive). The GI50 (M14) was 19.4 µM (inactive), the GI50 (MDA-MB-435) was 31.2 µM (inactive) and the GI50 (SF-539) was 28 µM (inactive). The GI50 (KM12) was 40 µM (inactive), the GI50 (OVCAR-5) was 41.1 µM (inactive) and the GI50 (M19-MEL) was 20.2 µM (inactive). For the same molecule, the GI50 (LOX IMVI) was 25.2 µM (inactive), the GI50 (HOP-62) was > 100 µM (inactive) and the GI50 (SK-OV-3) was > 70 µM (inactive). The GI50 (SR) was 3.94 µM (inactive), the GI50 (786-0) was 24.1 µM (inactive) and the GI50 (DLD-1) was 14.9 µM (inactive). For the same molecule, the GI50 (CCRF-CEM) was 3.51 µM (inactive), the GI50 (RXF 393) was 17.9 µM (inactive) and the GI50 (OVCAR-4) was 30.3 µM (inactive). The GI50 (MDA-MB-231) was 26.2 µM (inactive), the GI50 (U-251) was 27.7 µM (inactive) and the GI50 (COLO 205) was 15.5 µM (inactive). For the same molecule, the GI50 (DU-145) was > 100 µM (inactive), the GI50 (A549) was > 70.8 µM (inactive) and the GI50 (NCI-H23) was 21.4 µM (inactive). The GI50 (NCI-H522) was 8.41 µM (inactive), the GI50 (T47D) was 30.8 µM (inactive) and the GI50 (LXFL 529) was 7.28 µM (inactive). For the same molecule, the GI50 (PC-3) was > 100 µM (inactive), the GI50 (ACHN) was 26.8 µM (inactive) and the GI50 (SK-MEL-2) was 25.2 µM (inactive). For the same molecule, the GI50 (SF-295) was 23.6 µM (inactive), the GI50 (UACC-257) was 23.3 µM (inactive) and the GI50 (Malme-3M) was 17.1 µM (inactive). The GI50 (SNB-19) was 52.5 µM (inactive), the GI50 (OVCAR-8) was 19.7 µM (inactive) and the GI50 (TK-10) was > 55.2 µM (inactive). The GI50 (A498) was > 68.5 µM (inactive), the GI50 (NCI-H226) was > 63 µM (inactive) and the GI50 (MCF7) was 45.9 µM (inactive). For the same molecule, the GI50 (HOP-92) was 12.7 µM (inactive), the GI50 (BT-549) was > 10 µM (inactive) and the GI50 (HCT-116) was 15.7 µM (inactive). For the same molecule, the GI50 (XF498) was 30.3 µM (inactive), the GI50 (HL-60) was 3 µM (inactive) and the GI50 (SNB-75) was > 60 µM (inactive). The GI50 (K562) was 5.43 µM (inactive), the GI50 (CAKI-1) was 12.6 µM (inactive) and the GI50 (IGROV-1) was 34.4 µM (inactive). The GI50 (SF-268) was > 45.9 µM (inactive), the GI50 (UACC-62) was 21.9 µM (inactive) and the GI50 (SK-MEL-28) was 26.5 µM (inactive). The GI50 (SK-MEL-5) was 22.6 µM (inactive), the GI50 (HCT-15) was 20.4 µM and the GI50 (EKVX) was 39.6 µM (inactive). For the same molecule, the GI50 (HOP-18) was 22.3 µM (inactive), the GI50 (SW-620) was 11.1 µM (inactive) and the GI50 (MOLT-4) was 3.53 µM (inactive). The GI50 (HT-29) was 17.7 µM (inactive) and the GI50 (NCI-H460) was 56.6 µM (inactive).
